Where a name gives a salt, the structure may show the parent alone. Read-outs that look alike come from different tables or passages of the source.
What was measured:
Format in all cases: cell-based
[1] = tested on: pS6K1 (p-p70 S6 Kinase (Thr389)) in MCF-7 cells; test: AlphaLISA Ultra pS6K1 assay; details: 2 hours compound incubation
In short: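 MCF-7 cells seeded 20–24 h, medium refreshed 2 h, then treated 2 h with compound (0.5% DMSO final). Lysates probed for Thr389-phosphorylated p70 S6K by AlphaLISA Ultra, 2 h acceptor then 2 h donor bead incubation, read on a multimode reader.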

[2] = tested on: pAKT (p-Akt 1/2/3 (Ser473)) in MCF-7 cells; test: AlphaLISA Ultra pAKT assay
In short: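 AlphaLISA read-out (2 h acceptor-bead, then 2 h donor-bead incubation) on thawed lysates of MCF-7 cells exposed to compounds for 2 h in 0.5% DMSO. Cells had been plated 20-24 h and given fresh medium 2 h before dosing.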

MCF-7 cells = test: Radioactive glucose uptake in MCF-7 cells; details: Homo sapiens, MCF7, 3H-2DG uptake
Protocol: Example 157: Radioactive Glucose Uptake in MCF-7 Cells
Assay Protocol • 1. Seed approximately 12,000 MCF-7 cells cultured without insulin per well in 96-well plates (BIOCOAT, #356690) and let the cells sit in hood for 30 min. (Cell culture medium: DMEM+10% FBS). • 2. Put the cell culture plates in TC incubator (5% CO2, 37° C.) and incubate overnight. • 3. Take out the cell plates and wash with prewarmed KRH buffer (37° C.) three times using BioTek plate washer. (KRH buffer preparation: 136 mM NaCl, 4.7 mM KCl, 1.25 mM MgCl2, 1.2 mM CaCl2), 20 mM HEPES, 0.1 mg/ml sodium pyruvate, 0.1% BSA, pH 7.4). • 4. Compound preparation and treatment: • a) Add 12 ul compound stock in 100% DMSO to the first column of Echo LDV plate • b) Serially dilute the compound solution in 100% DMSO (4 uL+8 uL DMSO) using Bravo for 9 doses • c) Dispense 350 nL compounds using Echo to the working plate. • d) i) Without compound preincubation condition, dispense 116 uL KRH buffer containing tritiated 2-deoxy-D-glucose (3H-2DG) and 2-deoxy-D-glucose (2DG) to the working plate and mix. • ii. With compound preincubation condition, dispense 110 uL KRH buffer only to the working plates and mix • e) Keep the compound working plate at 37° C. incubator until use • 5. Discard the KRH buffer (cells were kept in KRH buffer for 10-15 min before 2-DG addition) and transfer 100 uL compound working solution out to the cell culture plate using Bravo. Incubate for 20 mins at 37° C. (2DG final at 0.2 mM, 3H-2DG at 10 uCi/mL). • 6. Add prewarmed 50 uL KRH buffer (37° C.) containing 60 mM cold 2DG to the wells to stop the 2DG uptake using Multidrop combi • 7. Wash the cells with prewarmed PBS three times using BioTek plate washer • 8. Add 50 uL lysis buffer (0.1 M NaOH) into the assay plate to lyse the cells using Bravo and shake at 800 rpm for 30 min. • 9. Mix and transfer 20 uL lysate to a new white plate (Corning, #3610) and add 200 uL MicroScint-20 using Bravo • 10. Shake the plate at 1000 rpm for 30 min and count in a MicroBeta plate reader.

[3] = Homo sapiens, MCF7, 2 hours compound incubation

Compound	IC50 ([1]; Homo sapiens, MCF7, 2 h)	IC50 [2, 3]	IC50 (MCF-7 cells)	IC50 ([2]; 2 hours compound incubation, read-out: pAKT in MCF7: IC50)	IC50 ([1]; read-out: pS6K1 in MCF7: IC50)
Cc1cc(C)c(C(=O)N2CCN(c3cccc(F)c3S(N)(=O)=O)CC2)c(C)c1NC1CCN(c2ccccc2C#N)CC1 [I-14, 2-(4-(3-(1-(2-Cyanophenyl)piperidin-4-ylamino)-2,4,6-trimethylbenzoyl)piperazin-1-yl)-6-fluorobenzenesulfonamide]	10 to 1000 nM	> 10000 nM	10 to 1000 nM		
Cc1cc(C)c(C(=O)N2CCN(c3cccnn3)[C@H](CN)C2)c(C)c1NC1CCN(c2ccc(F)cc2C#N)CC1 [I-195, (R)-2-(4-(3-(3-(aminomethyl)-4-(pyridazin-3-yl)piperazine-1-carbonyl)-2,4,6-trimethylphenylamino)piperidin-1-yl)-5-fluorobenzonitrile]	1000 to 3000 nM	> 10000 nM	3000 to 5000 nM		
Cc1cc(C)c(C(=O)N2CCN(c3cccnn3)[C@H](CO)C2)c(C)c1NC1CCN(c2ccc(F)cc2C#N)CC1 [I-141, 5-Fluoro-2-[4-[3-[(3S)-3-(hydroxymethyl)-4-pyridazin-3-yl-piperazine-1-carbonyl]-2,4,6-trimethyl-anilino]-1-piperidyl]benzonitrile]	10 to 1000 nM	> 10000 nM	10 to 1000 nM		
COc1ccccc1N1CCC(Nc2cc(C(=O)N3CCN(c4ccccc4S(N)(=O)=O)CC3)c(C)cc2C)CC1 [I-128, 2-(4-(5-(1-(2-Methoxyphenyl)piperidin-4-ylamino)-2,4-dimethylbenzoyl)piperazin-1-yl)benzenesulfonamide]	10 to 1000 nM	> 10000 nM	10 to 1000 nM		
Cc1cc(C)c(C(=O)N2CCN(c3ccccn3)[C@H](CO)C2)c(C)c1NC1CCN(c2cccnn2)CC1 [I-159, [(2S)-1-(pyridin-2-yl)-4-(2,4,6-trimethyl-3-{[1-(pyridazin-3-yl)piperidin-4-yl]amino}benzoyl)piperazin-2-yl]MeOH]	10 to 1000 nM	> 10000 nM	10 to 1000 nM		
Cc1cc(C)c(C(=O)N2CCN(c3ccccn3)C(=O)C2)c(C)c1NC1CCN(c2ccccc2C#N)CC1 [I-138, 2-[4-({2,4,6-trimethyl-3-[3-oxo-4-(pyridin-2-yl)piperazine-1-carbonyl]phenyl}amino)piperidin-1-yl] benzonitrile]	10 to 1000 nM	> 10000 nM	10 to 1000 nM		
Cc1cc(C)c(C(=O)N2CCN(c3cccc(S(N)(=O)=O)c3)CC2)cc1NC1CCN(c2ccccc2Cl)CC1 [I-4, 3-(4-(5-(1-(2-Chlorophenyl)piperidin-4-ylamino)-2,4-dimethylbenzoyl)piperazin-1-yl)benzenesulfonamide]	1000 to 3000 nM	> 10000 nM	> 10000 nM		
Cc1cc(C)c(C(=O)N2CCN(c3ccccn3)C(CO)C2)cc1NC1CCN(c2ccccc2C#N)CC1 (single isomer, unassigned) [I-48, 2-[4-({5-[(3R or 3S)-3-(hydroxymethyl)-4-(pyridin-2-yl)piperazine-1-carbonyl]-2,4-dimethylphenyl}amino)piperidin-1-yl]benzonitrile]	10 to 1000 nM	> 10000 nM	10 to 1000 nM		
Cc1cc(C)c(C(=O)N2CCN(c3ccccc3S(N)(=O)=O)CC2)cc1NC1CCN(c2ccccc2C#N)CC1C (stereo not shown) [I-43, 2-(4-(5-(1-(2-Cyanophenyl)-3-methylpiperidin-4-ylamino)-2,4-dimethylbenzoyl)piperazin-1-yl)benzenesulfonamide]	10 to 1000 nM	> 10000 nM	10 to 1000 nM		
Cc1cc(C)c(C(=O)N2CCN(c3ncccc3S(N)(=O)=O)CC2)c(C)c1NC1CCN(c2ccccc2C#N)CC1 [I-15, 2-(4-(3-(1-(2-Cyanophenyl)piperidin-4-ylamino)-2,4,6-trimethylbenzoyl)piperazin-1-yl)pyridine-3-sulfonamide]	10 to 1000 nM	> 10000 nM	10 to 1000 nM		
Cc1cc(C)c(C(=O)N2CCN(c3cccnc3[S@](C)(=N)=O)CC2)c(C)c1NC1CCN(c2ncccc2Cl)CC1 (stereo in doubt) [I-176, (3-(4-(3-((1-(3-chloropyridin-2-yl)piperidin-4-yl)amino)-2,4,6-trimethylbenzoyl)piperazin-1-yl)pyridin-2-yl)(imino)(methyl)-16-sulfanone Trifluoroacetate Salt]			10 to 1000 nM	> 10000 nM	
Cc1cc(C)c(C(=O)N2CCN(c3cccc(F)c3[S@](C)(=N)=O)C[C@@H]2C)c(C)c1NC1CCN(c2ccccc2C#N)CC1 [I-192, 2-(4-(3-((2S)-4-(3-fluoro-2-(S-methylsulfonimidoyl)phenyl)-2-methylpiperazine-1-carbonyl)-2,4,6-trimethylphenylamino)piperidin-1-yl)benzonitrile]			10 to 1000 nM		
Cc1cc(C)c(C(=O)N2CCN(c3cc(F)ccn3)[C@@H](CO)C2)cc1NC1CCN(c2ccccc2C#N)CC1 [I-99, (R)-2-(4-(5-(4-(4-Fluoropyridin-2-yl)-3-(hydroxymethyl)piperazine-1-carbonyl)-2,4-dimethylphenylamino)piperidin-1-yl)benzonitrile]	1000 to 3000 nM	> 10000 nM			
Cc1cc(C)c(C(=O)N2CCN(c3ccccc3)CC2)cc1NC1CCN(c2ccccc2C#N)CC1 [I-57]	1000 to 3000 nM	> 10000 nM			
Cc1ccc(NC2CCN(c3ccccc3C#N)CC2)cc1C(=O)N1CCN(c2ccccc2)C(CO)C1 (single isomer, unassigned) [I-82, 2-[4-({3-[(3R or S)-3-(hydroxymethyl)-4-phenylpiperazine-1-carbonyl]-4-methylphenyl}amino)piperidin-1-yl]benzonitrile]		> 10000 nM			3000 to 5000 nM
Cc1cc(C)c(C(=O)N2CCN(c3cccnc3S(N)(=O)=O)CC2)c(C)c1NC1CCN(c2ncccc2Cl)CC1 [I-185, 3-(4-(3-(1-(3-chloropyridin-2-yl)piperidin-4-ylamino)-2,4,6-trimethylbenzoyl)piperazin-1-yl)pyridine-2-sulfonamide]	10 to 1000 nM	> 10000 nM			
Cc1cc(C)c(C(=O)N2CCN(c3ncccc3S(N)(=O)=O)CC2)c(C)c1NC1CCN(c2ncccc2Cl)CC1 [I-186, 2-(4-(3-(1-(3-chloropyridin-2-yl)piperidin-4-ylamino)-2,4,6-trimethylbenzoyl)piperazin-1-yl)pyridine-3-sulfonamide]	10 to 1000 nM	> 10000 nM			
Cc1cc(C)c(C(=O)N2CCN(c3ccccc3C#N)CC2)cc1NC1CCN(c2ccccc2Cl)CC1 [I-37, 2-(4-(5-(1-(2-Chlorophenyl)piperidin-4-ylamino)-2,4-dimethylbenzoyl)piperazin-1-yl)benzonitrile]	1000 to 3000 nM	> 10000 nM			
Cc1cc(C)c(C(=O)N2CCN(c3ccccn3)C(C)(C)C2)cc1NC1CCN(c2ccccc2C#N)CC1 [I-118]	1000 to 3000 nM	> 10000 nM			
Cc1cc(C)c(C(=O)N2CCN(c3ccccc3[S@](C)(=N)=O)CC2)nc1NC1CCN(c2ccccc2C#N)CC1 [I-110, (R)-2-(4-(3,5-Dimethyl-6-(4-(2-(S-methylsulfonimidoyl)phenyl)piperazine-1-carbonyl)pyridin-2-ylamino)piperidin-1-yl)benzonitrile]	10 to 1000 nM	> 10000 nM			
Cc1cc(C#N)c(NC2CCN(c3ccccc3C#N)CC2)cc1C(=O)N1CCN(c2ccccc2S(N)(=O)=O)CC1 [I-86, 2-(4-(4-Cyano-5-(1-(2-cyanophenyl)piperidin-4-ylamino)-2-methylbenzoyl)piperazin-1-yl)benzenesulfonamide]	> 10000 nM	> 10000 nM			
Cc1cc(C)c(N(C)C2CCN(c3ccccc3C#N)CC2)cc1C(=O)N1CCN(c2ccccc2C#N)CC1 [I-68, 2-[4-({5-[4-(2-cyanophenyl)piperazine-1-carbonyl]-2,4-dimethylphenyl}(methyl)amino)piperidin-1-yl]benzonitrile]	10 to 1000 nM	> 10000 nM			
Cc1cc(C)c(C(=O)N2CCN(c3ccc(F)cn3)[C@H](CO)C2)c(C)c1NC1CCN(c2cnccn2)CC1 [I-148, [(3S)-4-(5-Fluoro-2-pyridyl)-3-(hydroxymethyl)piperazin-1-yl]-[2,4,6-trimethyl-3-[(1-pyrazin-2-yl-4-piperidyl)amino]phenyl]methanone]	10 to 1000 nM	> 10000 nM			

From patent US10844013B2, “Phenyl amino piperidine mTORC inhibitors and uses thereof” (Navitor Pharmaceuticals, Inc., priority 2016, dated 2020)
